Like-named read-outs stand apart in the source and are kept apart here.

The test system of one assay is TGW. The assay is described as follows: Cell Proliferation Assay ±NA, TGW. Particulars: autonomic ganglia, treatment time 48 hr. Format: cell-based. As to the method:
(§1) The purpose of this assay is to measure the ability of a compound to inhibit proliferation of endometrium, kidney, adrenal gland, and autonomic ganglia cancer cell lines dependent on the NAMPT-mediated NAD^+ formation in the presence or absence of NA (10 μM) in vitro. One day before the planned initiation of compound treatment portion of the assay, one vial of assay ready frozen cells is thawed, and the cells are grown overnight in the media as shown in Table 3 under 5% CO2 at 37° C. Then, the cell layer is briefly rinsed with 0.25% (w/v) Trypsin-0.038% (w/v) EDTA solution followed with the addition of 3.0 ml of Trypsin-EDTA solution. Once the cell layer is dispersed, 8.0 ml of complete growth medium (Table 3) is added and cells are aspirated by gently pipetting. The cell suspension is transferred to a centrifuge tube and centrifuged at 800-1000 rpm for 3-5 minutes. The supernatant is discarded using a vacuum pump. The cell pellet is suspended in a complete medium by gently pipetting. The cell numbers are counted and adjusted to the appropriate density (Table 3). […] The bottom of each plate is pasted with a white back seal and luminescence is recorded using a Flexstation 3 with the following settings: Luminescence and integration time of 500 ms.

The next assay has as its system AN3-CA. The assay is described as follows: Cell Proliferation Assay ±NA, AN3-CA. To be noted: Homo sapiens, endometrium, treatment time 72 hr. Format: cell-based. On the procedure: as §1
The test system of another assay is A704. The assay is described as follows: Cell Proliferation Assay ±NA, A704. Format: cell-based. To be noted: Homo sapiens, A704, kidney, treatment time 72 hr. On the procedure: as §1
Another assay relates to 786-0. The assay is described as follows: Cell Proliferation Assay ±NA, 786-0. Format: cell-based. To be noted: Homo sapiens, 786-0, kidney, treatment time 48 hr. On the procedure: as §1
The test system of another assay is ACHN. The assay is described as follows: Cell Proliferation Assay ±NA, ACHN. Format: cell-based. Particulars: Homo sapiens, kidney, treatment time 72 hr. On the procedure: as §1
The test system of assay [1] is NAMPT-mediated NAD+ formation in A2780 tumors. The assay is described as follows: IVTI Assay (NAD+ formation in A2780 tumors). Format: in vivo. To be noted: A2780 xenograft, female nude mice, oral gavage, after 2 doses (7 hours after second dose); ± SE. As to the method:
The purpose of this assay is to measure the ability of a test compound to inhibit the NAMPT-mediated NAD^+ formation in tumors in an animal model. A2780 cells (ATCC) are grown as described above for the NAD^+ assay (Assay for NAD^+/NMN Levels in A2780 Cells). The cells (5×10^6/animal) are mixed with MATRIGEL® (1:1) and implanted subcutaneously into the rear flank of the mice (female nude mice, Harlan). The implanted tumor cells grow as solid tumors. The tumor volume and body weight are measured twice a week with a caliper. After tumor volume reaches approximately 300-500 mm^3, animals are randomized and grouped into positive control (described herein; 5 animals/group) and compound treatment groups (5 animals/group). The compound (formulated in 20% of CAPTISOL® and 25 mM of phosphate buffer, pH 2) and positive control (20% of CAPTISOL® and 25 mM of phosphate buffer, pH 2) are administered by oral gavage. Compound doses are in the range of 0.10 to 25 mg/kg. […] The resulting preparations (0.5 mL each) are filtered (with a 10K cutoff filter) to remove hemoglobin because red color interferes with the absorbance. […] NAD^+ quantitation is carried out using a NAD^+/NADH cycling assay kit (BioVision, cat#337-100-1). […] The percent inhibition of compound treated groups is calculated relative to the minimum inhibition groups. […]

Where [2] appears, read: NA 0.0 μM, read-out: IC50 (μM) NA (0.0 μM).
The mark [3] stands for this setting: NA 10 μM, read-out: IC50 (μM) NA (10 μM).

With `CC(C)(O)CS(=O)(=O)Nc1ccc2c(c1)CCN(C(=O)COc1cccnc1)C2` [Example 1, 2-Hydroxy-2-methyl-N-[2-[2-(3-pyridyloxy)acetyl]-3,4-dihydro-1H-isoquinolin-6-yl]propane-1-sulfonamide], the IC50 (as a rule, the concentration at which inhibition is half-maximal) with TGW (setting [2]) is 0.01 µM; with TGW (setting [3]) it was 0.01 µM; with AN3-CA (setting [2]) it was 0.02 µM; in the assay on AN3-CA (setting [3]), 0.02 µM; in the assay on A704 (setting [2]) it was 0.37 µM; in the assay on A704 (setting [3]), over 2 µM. The IC50 with 786-0 (setting [2]) was 0.07 µM; with 786-0 (setting [3]), 0.04 µM; in the assay on ACHN (setting [2]), 0.11 µM; in the assay on ACHN (setting [3]), over 2 µM. Moreover, in assay [1], the “TED50 (dose for 50% inhibition of NAD+ formation in tumor)” value was 2.56 ± 0.37 mg/kg.
